The results in this text go back to ChEMBL document CHEMBL1147197, “Studies on logP, retention time and QSAR of 2-substituted phenylnitronyl nitroxides as free radical scavengers” (Eur J Med Chem, 2007).

Molecules are shown by their SMILES. pEC50: −log10 of the molar value.

Data set [1] in a line: Retention time, log K of the compound. Format: ADME.
Data set [2] relates to PC-12. In words: Nitric oxide radical scavenging activity in PC12 cells by survival assay. The data set is classed as functional, cell-based, Homo sapiens. The conditions noted are these: Rattus norvegicus; for pEC50: read-out: EC50; for EC50: read-out: Log EC50 (converted).
The test system of data set [3] is PC-12. Description: Hydrogen peroxide radical scavenging activity in PC12 cell by survival assay. Format: functional, cell-based, Homo sapiens. As to conditions: Rattus norvegicus; for pEC50: read-out: EC50; for EC50: read-out: Log EC50 (converted).
Data set [4] is described as follows: Partition coefficient, log P of the compound. Format: physicochemical. As to conditions: octanol/water.
Data set [5] concerns PC-12. Description: Hydroxyl radical scavenging activity in PC12 cell by survival assay. Format: functional, cell-based, Homo sapiens. The conditions noted are these: Rattus norvegicus; for pEC50: read-out: EC50; for EC50: read-out: Log EC50 (converted).

One may read the pEC50 as −log10 of the EC50, conventionally taken in molar units. Broadly, the EC50 is the concentration giving half of the maximal effect. The logP is a log measure of how a compound divides between an organic and an aqueous phase. Low values mean a more hydrophilic compound, high ones a more lipophilic compound.

Regarding `CN(C)c1ccc(C2=[N+]([O-])C(C)(C)C(C)(C)N2[O])cc1`, in data set [1], the “log K” value turned out to be 1.328. Besides, the pEC50 with PC-12 [2] is 5.04; in the data set on PC-12 [3] it was 4.54; with PC-12 [5] it was 4.51. Also, the EC50 is 9.12 µM in the data set with PC-12 [2], 28.8 µM with PC-12 [3] and 30.9 µM in the data set on PC-12 [5]. In data set [4], this molecule came in with a logP of 2.02.
On to `CC1(C)N([O])C(c2ccc(Cl)cc2)=[N+]([O-])C1(C)C`, for which the “log K” value in data set [1] worked out at 1.6. Further, the negative-log EC50 (pEC50) was 4.20 in the data set on PC-12 [2], 4.23 in the data set with PC-12 [3] and 4.13 in the data set with PC-12 [5]. Also, the EC50 in the data set on PC-12 [2] is 63.1 µM; with PC-12 [3], 58.9 µM; in the data set on PC-12 [5], 74.1 µM. The logP in data set [4] was 2.33.
With `CC1(C)N([O])C(c2ccc(Cl)cc2Cl)=[N+]([O-])C1(C)C`, in data set [1], the “log K” value stood at 1.347. Moreover, the pEC50 with PC-12 [2] was 4.37; in the data set with PC-12 [3] it was 4.19; with PC-12 [5], 4.11. For the same molecule, the EC50 with PC-12 [2] was 42.7 µM; in the data set on PC-12 [3], 64.6 µM; with PC-12 [5], 77.6 µM. In data set [4], this molecule registered a logP of 1.93.
As to `CC1(C)N([O])C(c2ccccc2[N+](=O)[O-])=[N+]([O-])C1(C)C`, the “log K” value in data set [1] is listed as 0.598. The results for the pEC50 in the data set on PC-12 [2], in the data set on PC-12 [3] and in the data set with PC-12 [5] were 4.32, 4.22 and 4.13, respectively. Also, the EC50 with PC-12 [2] is 47.9 µM; with PC-12 [3], 60.3 µM; in the data set with PC-12 [5], 74.1 µM. The molecule further came in with a logP in data set [4] of 0.909.
For the molecule `CC1(C)N([O])C(c2ccc(OCC(=O)O)cc2)=[N+]([O-])C1(C)C`, in data set [1], the “log K” value is listed as -0.372. Also, the figures for the pEC50 with PC-12 [2], with PC-12 [3] and in the data set with PC-12 [5] were 4.04, 4.13 and 4.00, respectively. Also, the results for the EC50 in the data set on PC-12 [2], in the data set with PC-12 [3] and in the data set on PC-12 [5] were 91.2 µM, 74.1 µM and 100 µM, respectively. The molecule further had a logP in data set [4] of -0.518.
`CC1(C)N([O])C(c2cccnc2)=[N+]([O-])C1(C)C`: in data set [1], the “log K” value is reported as 0.337. In data set [4], the logP came to 0.512.
In the case of `Cc1ccc(C2=[N+]([O-])C(C)(C)C(C)(C)N2[O])cc1`, the “log K” value in data set [1] was 1.309. The figures for the pEC50 in the data set with PC-12 [2], with PC-12 [3] and in the data set with PC-12 [5] were 4.48, 4.42 and 4.19, respectively. For the same molecule, the EC50 with PC-12 [2] was 33.1 µM; with PC-12 [3] it was 38 µM; in the data set with PC-12 [5], 64.6 µM. This molecule also came in with a logP in data set [4] of 1.9.
Regarding `COc1ccc(C2=[N+]([O-])C(C)(C)C(C)(C)N2[O])cc1`, in data set [1], the “log K” value was determined as 1.101. Besides, the negative logarithm of the EC50 (pEC50) in the data set with PC-12 [2] was 4.51; with PC-12 [3], 4.37; in the data set on PC-12 [5] it was 4.23. Besides, the EC50 was 30.9 µM in the data set with PC-12 [2], 42.7 µM in the data set with PC-12 [3] and 58.9 µM in the data set on PC-12 [5]. The molecule also displayed a logP in data set [4] of 1.62.
`COc1ccc(C2=[N+]([O-])C(C)(C)C(C)(C)N2[O])c(OC)c1`: the “log K” value in data set [1] worked out at 0.62. Besides, the pEC50 in the data set on PC-12 [2] is 5.03; in the data set on PC-12 [3] it was 4.60; in the data set with PC-12 [5], 4.56. For the same molecule, the EC50 in the data set with PC-12 [2] is 9.33 µM; with PC-12 [3], 25.1 µM; with PC-12 [5], 27.5 µM. In addition, the logP in data set [4] came to 0.77.
For `CC1(C)N([O])C(c2ccccc2F)=[N+]([O-])C1(C)C`, the “log K” value in data set [1] is listed as 0.577. For the same molecule, the pEC50 in the data set on PC-12 [2] is 4.35; with PC-12 [3], 4.12; in the data set with PC-12 [5], 4.07. The results for the EC50 with PC-12 [2], in the data set on PC-12 [3] and in the data set on PC-12 [5] were 44.7 µM, 75.9 µM and 85.1 µM, respectively. The logP in data set [4] turned out to be 0.822.
Take `COc1ccc(C2=[N+]([O-])C(C)(C)C(C)(C)N2[O])cc1O`: in data set [1], the “log K” value is 0.534. Moreover, the pEC50 is 4.56 with PC-12 [2], 4.40 in the data set on PC-12 [3] and 4.27 with PC-12 [5]. Also, the EC50 in the data set on PC-12 [2] is 27.5 µM; in the data set on PC-12 [3] it was 39.8 µM; in the data set on PC-12 [5], 53.7 µM. For the same molecule, the log partition coefficient (logP) in data set [4] stood at 0.918.
Take `CC1(C)N([O])C(c2ccccc2O)=[N+]([O-])C1(C)C`: in data set [1], the “log K” value is 0.729. For the same molecule, the results for the pEC50 in the data set on PC-12 [2], in the data set with PC-12 [3] and with PC-12 [5] were 4.35, 4.28 and 4.26, respectively. Besides, the EC50 is 44.7 µM in the data set with PC-12 [2], 52.5 µM in the data set with PC-12 [3] and 55 µM in the data set with PC-12 [5]. In data set [4], this molecule registered a logP of 1.17.
As for `CC1(C)N([O])C(c2ccc(O)cc2)=[N+]([O-])C1(C)C`, the “log K” value in data set [1] was determined as 0.483. Also, the pEC50 with PC-12 [2] is 4.40; with PC-12 [3] it was 4.32; in the data set on PC-12 [5], 4.25. The EC50 with PC-12 [2] is 39.8 µM; with PC-12 [3] it was 47.9 µM; in the data set on PC-12 [5], 56.2 µM. In data set [4], this molecule showed a logP of 0.619.
On to `COc1cc(C2=[N+]([O-])C(C)(C)C(C)(C)N2[O])ccc1O`, for which the “log K” value in data set [1] turned out to be 0.558. Besides, the pEC50 in the data set with PC-12 [2] was 4.59; with PC-12 [3], 4.49; with PC-12 [5] it was 4.37. Further, the EC50 with PC-12 [2] is 25.7 µM; in the data set on PC-12 [3], 32.4 µM; in the data set with PC-12 [5], 42.7 µM. Moreover, in data set [4], the lipophilicity (logP) came to 1.14.
`CC1(C)N([O])C(c2ccc([N+](=O)[O-])cc2)=[N+]([O-])C1(C)C`: the “log K” value in data set [1] is listed as 1.245. Also, the pEC50 is 3.94 with PC-12 [2], 3.97 with PC-12 [3] and 3.78 in the data set with PC-12 [5]. The EC50 with PC-12 [2] is 115 µM; with PC-12 [3], 107 µM; with PC-12 [5], 166 µM. In data set [4], this molecule returned a logP of 1.68.
Turning to `COc1ccc(C2=[N+]([O-])C(C)(C)C(C)(C)N2[O])cc1OC`, in data set [1], the “log K” value is reported as 0.905. Further, the pEC50 with PC-12 [2] was 5.08; in the data set on PC-12 [3], 4.52; in the data set with PC-12 [5], 4.53. For the same molecule, the concentration giving a half-maximal response (EC50) in the data set on PC-12 [2] was 8.32 µM; with PC-12 [3] it was 30.2 µM; with PC-12 [5], 29.5 µM. In data set [4], this molecule registered a logP of 1.15.
`CC1(C)N([O])C(c2ccc3c(c2)OCO3)=[N+]([O-])C1(C)C`: the “log K” value in data set [1] stood at 1.039. In addition, the values for the pEC50 in the data set on PC-12 [2], in the data set on PC-12 [3] and with PC-12 [5] were 4.71, 4.53 and 4.33, respectively. In addition, the EC50 is 19.5 µM in the data set with PC-12 [2], 29.5 µM in the data set with PC-12 [3] and 46.8 µM in the data set on PC-12 [5]. In addition, the logP in data set [4] worked out at 1.51.
Take `CC1(C)N([O])C(c2ccc(Br)cc2)=[N+]([O-])C1(C)C`: the “log K” value in data set [1] stood at 1.713. The pEC50 in the data set on PC-12 [2] was 4.33; in the data set on PC-12 [3], 4.26; with PC-12 [5] it was 4.22. The figures for the EC50 with PC-12 [2], in the data set with PC-12 [3] and in the data set on PC-12 [5] were 46.8 µM, 55 µM and 60.3 µM, respectively. In data set [4], this molecule returned a logP of 2.46.
For the molecule `CC1(C)N([O])C(c2cccc([N+](=O)[O-])c2)=[N+]([O-])C1(C)C`, in data set [1], the “log K” value was 1.157. Further, the pEC50 in the data set on PC-12 [2] was 4.06; in the data set on PC-12 [3], 4.21; in the data set with PC-12 [5], 4.20. Besides, the EC50 with PC-12 [2] was 87.1 µM; with PC-12 [3] it was 61.7 µM; in the data set with PC-12 [5] it was 63.1 µM. This molecule also registered a logP in data set [4] of 1.64.
As to `CC1(C)N([O])C(c2cccc(O)c2)=[N+]([O-])C1(C)C`, in data set [1], the “log K” value is on record as 0.546. Also, the pEC50 in the data set on PC-12 [2] is 4.21; in the data set with PC-12 [3], 4.24; in the data set on PC-12 [5] it was 4.16. In addition, the results for the EC50 in the data set on PC-12 [2], with PC-12 [3] and in the data set with PC-12 [5] were 61.7 µM, 57.5 µM and 69.2 µM, respectively. In data set [4], this molecule had a logP of 1.14.
Consider `CC1(C)N([O])C(c2ccco2)=[N+]([O-])C1(C)C`, for which the “log K” value in data set [1] is 0.405. This molecule also showed a logP in data set [4] of 0.615.
Turning to `CC1(C)N([O])C(c2ccccc2)=[N+]([O-])C1(C)C`, the “log K” value in data set [1] was 0.918. Moreover, the pEC50 in the data set on PC-12 [2] was 4.17; with PC-12 [3], 4.29; with PC-12 [5], 4.18. The EC50 is 67.6 µM in the data set on PC-12 [2], 51.3 µM in the data set with PC-12 [3] and 66.1 µM in the data set on PC-12 [5]. In data set [4], this molecule returned a logP of 1.36.
